Data as given in patent publication US12115178B2, “Acylated active agents and methods of their use for the treatment of autoimmune disorders” (Flagship Pioneering Innovations V, Inc., priority 2018, dated 2024).

Assays:
Assay type in all cases: in vitro ADME
[1] = Assay 2. Stability in Simulated Intestinal Fluid (SIF); details: SIF pH 6.7 with pancreatin, 1 μM, 37° C.
Outline: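 Degradation rates came from LC/MS of acetonitrile-quenched samples drawn at intervals, starting at T0. The medium was freshly made pH 6.7 FaSSIF containing pancreatin, and test compound was present at 1 µM while being shaken at 37 °C.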

[2] = Assay 1. Stability in Simulated Gastric Fluid (SGF)
Outline: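 Degradation rate from LC/MS of acetonitrile-quenched aliquots (T0, then regular intervals). Fresh SGF (pH 1.6 NaCl, FaSSIF powder, pepsin 0.1 mg/mL) held compound at 1 μM final, 37° C; 1 mM DMSO stock.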

[3] = Assay 3. In vitro Colonic Material Stability Assay
[4] = SGF pH 1.6 with pepsin, 1 μM, 37° C.
[5] = colonic material slurry, anaerobic, 1 or 10 μM

| SMILES | Assay 2 (SIF) (% @ Remaining 4 hours) [1] | Assay 1 (SGF) (% Remaining @ 1 hour) [2, 4] | Assay 3 (% Remaining at 24 h) [3, 5] | Assay 1 (SGF) (% Remaining @ 1 hour) ([2]; Batch 1, SGF) | Assay 1 (SGF) (% Remaining @ 1 hour) ([2]; Batch 2, SGF) | Assay 3 (% Remaining at 24 h) ([3]; Run 1, colonic material) | Assay 3 (% Remaining at 24 h) ([3]; Run 2, colonic material) |
| --- | --- | --- | --- | --- | --- | --- | --- |
| CCCC(=O)O[C@H]1[C@H](OC(=O)CCC)[C@H](OC(=O)CCc2c[nH]c3ccccc23)O[C@@H](C)[C@H]1OC(=O)CCC [Compound 84, (2S,3S,4R,5R,6S)-4,5-bis(butanoyloxy)-2-{[3-(1H-indol-3-yl)propanoyl]oxy}-6-methyloxan-3-yl butanoate] | A (<25% of the tested compound remaining) | C (>75% of the tested compound remaining) | A (<25% of the tested compound remaining) |  |  |  |  |
| CCCC(=O)O[C@H]1[C@H](OC)OC[C@@H](OC(=O)CCC)[C@H]1OC(=O)CCC [Compound 50, (2R,3R,4R,5R)-3,5-bis(butanoyloxy)-2-methoxyoxan-4-yl butanoate] | A (<25% of the tested compound remaining) | C (>75% of the tested compound remaining) | A (<25% of the tested compound remaining) |  |  |  |  |
| CCC(=O)Oc1ccc(-c2cc(=O)c3c(O)cc(OC(=O)CC)cc3o2)cc1 [Compound 168, 5-hydroxy-4-oxo-2-[4-(propanoyloxy)phenyl]-4H-chromen-7-yl propanoate] | A (<25% of the tested compound remaining) | B (25-75% of the tested compound remaining) | A (<25% of the tested compound remaining) |  |  |  |  |
| CCC(=O)Oc1ccc(-c2oc3cc(OC(=O)CC)cc(OC(=O)CC)c3c(=O)c2OC(=O)CC)cc1 [Compound 167, 4-[4-oxo-3,5,7-tris(propanoyloxy)-4H-chromen-2-yl]phenyl propanoate] | A (<25% of the tested compound remaining) | B (25-75% of the tested compound remaining) | A (<25% of the tested compound remaining) |  |  |  |  |
| CCC(=O)OC[C@H]1O[C@H](OC(=O)CCc2c[nH]c3ccccc23)[C@H](OC(=O)CC)[C@@H](OC(=O)CC)[C@@H]1OC(=O)CC [Compound 109, [(2R,3R,4S,5R,6R)-6-{[3-(1H-indol-3-yl)propanoyl]oxy}-3,4,5-tris(propanoyloxy)oxan-2-yl]methyl propanoate] | A (<25% of the tested compound remaining) | C (>75% of the tested compound remaining) | A (<25% of the tested compound remaining) |  |  |  |  |
| CCC(=O)OC[C@H]1O[C@@H](OC(=O)Cc2c[nH]c3ccccc23)[C@H](OC(=O)CC)[C@@H](OC(=O)CC)[C@@H]1OC(=O)CC [Compound 111, [(2R,3R,4S,5R,6S)-6-{[2-(1H-indol-3-yl)acetyl]oxy}-3,4,5-tris(propanoyloxy)oxan-2-yl]methyl propanoate] | A (<25% of the tested compound remaining) | C (>75% of the tested compound remaining) | A (<25% of the tested compound remaining) |  |  |  |  |
| O=C(CCc1c[nH]c2ccccc12)O[C@@H]1OC[C@H](OC(=O)CCc2c[nH]c3ccccc23)[C@H](OC(=O)CCc2c[nH]c3ccccc23)[C@H]1OC(=O)CCc1c[nH]c2ccccc12 [Compound 69, (2S,3R,4S,5S)-3,4,5-tris({[3-(1H-indol-3-yl)propanoyl]oxy})oxan-2-yl 3-(1H-indol-3-yl)propanoate] | A (<25% of the tested compound remaining) | B (25-75% of the tested compound remaining) | A (<25% of the tested compound remaining) |  |  |  |  |
| CCC(=O)O[C@H]1[C@H](OC(=O)CC)[C@H](OC(=O)CCc2c[nH]c3ccccc23)O[C@@H](C)[C@H]1OC(=O)CC [Compound 123, (2S,3S,4R,5R,6S)-6-methyl-3,4,5-tris(propanoyloxy)oxan-2-yl 3-(1H-indol-3-yl)propanoate] | C (>75% of the tested compound remaining) |  | A (<25% of the tested compound remaining) | C (>75% of the tested compound remaining) | B (25-75% of the tested compound remaining) |  |  |
| CCCC(=O)OC[C@H]1O[C@H](OC(=O)CCc2c[nH]c3ccccc23)[C@H](OC(=O)CCC)[C@@H](OC(=O)CCC)[C@@H]1OC(=O)CCC [Compound 90, [(2R,3R,4S,5R,6R)-3,4,5-tris(butanoyloxy)-6-{[3-(1H-indol-3-yl)propanoyl]oxy}oxan-2-yl]methyl butanoate] | B (25-75% of the tested compound remaining) | C (>75% of the tested compound remaining) | A (<25% of the tested compound remaining) |  |  |  |  |
| CCC(=O)O[C@@H]1[C@@H](OC(=O)CC)[C@H](C)O[C@@H](OC(=O)Cc2c[nH]c3ccccc23)[C@@H]1OC(=O)CC [Compound 115, (2S,3R,4R,5S,6S)-2-{[2-(1H-indol-3-yl)acetyl]oxy}-6-methyl-4,5-bis(propanoyloxy)oxan-3-yl propanoate] | A (<25% of the tested compound remaining) | C (>75% of the tested compound remaining) | A (<25% of the tested compound remaining) |  |  |  |  |
| CCC(=O)O[C@@H]1[C@@H](OC(=O)CC)[C@H](C)O[C@@H](OC(=O)/C=C/c2c[nH]c3ccccc23)[C@@H]1OC(=O)CC [Compound 102, (2S,3R,4R,5S,6S)-6-methyl-3,4,5-tris(propanoyloxy)oxan-2-yl (2E)-3-(1H-indol-3-yl)prop-2-enoate] | B (25-75% of the tested compound remaining) | C (>75% of the tested compound remaining) | A (<25% of the tested compound remaining) |  |  |  |  |
| CCC(=O)O[C@H]1[C@H](OC(=O)CC)[C@@H](OC(=O)CCc2c[nH]c3ccccc23)O[C@@H](C)[C@H]1OC(=O)CC [Compound 77, (2R,3S,4R,5R,6S)-6-methyl-3,4,5-tris(propanoyloxy)oxan-2-yl 3-(1H-indol-3-yl)propanoate] | C (>75% of the tested compound remaining) | C (>75% of the tested compound remaining) | A (<25% of the tested compound remaining) |  |  |  |  |
| CCCC(=O)O[C@@H]1[C@@H](OC(=O)CCC)[C@@H](OC)OC[C@@H]1OC(=O)CCC [Compound 52, (2S,3R,4S,5S)-3,5-bis(butanoyloxy)-2-methoxyoxan-4-yl butanoate] | B (25-75% of the tested compound remaining) | B (25-75% of the tested compound remaining) | B (25-75% of the tested compound remaining) |  |  |  |  |
| CCC(=O)O[C@@H]1[C@@H](OC(=O)CC)[C@H](OC(=O)/C=C/c2c[nH]c3ccccc23)OC[C@H]1OC(=O)CC [Compound 91, (2S,3R,4S,5R)-3,4,5-tris(propanoyloxy)oxan-2-yl (2E)-3-(1H-indol-3-yl)prop-2-enoate] | A (<25% of the tested compound remaining) | C (>75% of the tested compound remaining) | A (<25% of the tested compound remaining) |  |  |  |  |
| CCC(=O)OC[C@H]1O[C@H](OC)[C@H](OC(=O)CC)[C@@H](OC(=O)CC)[C@@H]1OC(=O)CC [Compound 55, [(2R,3R,4S,5R,6S)-6-methoxy-3,4,5-tris(propanoyloxy)oxan-2-yl]methyl propanoate] | A (<25% of the tested compound remaining) | C (>75% of the tested compound remaining) | A (<25% of the tested compound remaining) |  |  |  |  |
| CO[C@H]1O[C@H](COC(C)=O)[C@@H](OC(C)=O)[C@H](OC(C)=O)[C@@H]1OC(C)=O [Compound 161, (2R,3R,4S,5S,6S)-2-(acetoxymethyl)-6-methoxytetrahydro-2H-pyran-3,4,5-triyl triacetate] | C (>75% of the tested compound remaining) | C (>75% of the tested compound remaining) | B (25-75% of the tested compound remaining) |  |  |  |  |
| CCC(=O)O[C@@H]1[C@@H](OC(=O)CC)[C@@H](OC(=O)Cc2c[nH]c3ccccc23)OC[C@@H]1OC(=O)CC [Compound 108, (3S,4S,5R,6R)-6-{[2-(1H-indol-3-yl)acetyl]oxy}-4,5-bis(propanoyloxy)oxan-3-yl propanoate] | A (<25% of the tested compound remaining) | C (>75% of the tested compound remaining) | A (<25% of the tested compound remaining) |  |  |  |  |
| CCC(=O)O[C@@H]1[C@@H](OC(=O)CC)[C@H](OC(=O)Cc2c[nH]c3ccccc23)OC[C@@H]1OC(=O)CC [Compound 103, (3S,4S,5R,6S)-6-{[2-(1H-indol-3-yl)acetyl]oxy}-4,5-bis(propanoyloxy)oxan-3-yl propanoate] | A (<25% of the tested compound remaining) | C (>75% of the tested compound remaining) | A (<25% of the tested compound remaining) |  |  |  |  |
| C[C@@H]1O[C@H](OC(=O)CCc2c[nH]c3ccccc23)[C@@H](OC(=O)CCc2c[nH]c3ccccc23)[C@H](OC(=O)CCc2c[nH]c3ccccc23)[C@@H]1OC(=O)CCc1c[nH]c2ccccc12 [Compound 70, (2R,3S,4R,5R,6S)-3,4,5-tris({[3-(1H-indol-3-yl)propanoyl]oxy})-6-methyloxan-2-yl 3-(1H-indol-3-yl)propanoate] | A (<25% of the tested compound remaining) | B (25-75% of the tested compound remaining) |  |  |  | A (<25% of the tested compound remaining) | B (25-75% of the tested compound remaining) |
